Source: US7223759B2, “Antibacterial 3,5-diaminopiperidine-substituted aromatic and heteroaromatic compounds” (Anadys Pharmaceuticals, Inc., priority 2003, dated 2007)

test system: Escherichia coli (ATCC25922) or Staphylococcus aureus (ATCC25923); assay: Antibacterial MIC, microdilution method in Mueller-Hinton medium; format: cell-based; conditions: Escherichia coli, 18 h, MIC in E. coli or S. aureus; two-fold serial dilutions 64 to 0.5 μg/ml in duplicate; 18 hours of incubation at 35° C.; read-out: Potency (MIC)
In short: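 Two-fold serial dilutions from 64 to 0.5 μg/ml, in duplicate, by broth microdilution in Mueller-Hinton medium (NCCLS M7-A5). MIC taken as the lowest concentration preventing visible growth after 18 h at 35° C.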

| MIC | SMILES |
| --- | --- |
| < 64 µg/mL | Cl.O=C(Nc1ccc(Nc2nc(N3CCCCC3)nc(N3CCCCC3)n2)cc1)c1ccc2ccccc2c1O [1-Hydroxy-naphthalene-2-carboxylic acid {4-[4-((3S,5R)-3,5-diamino-piperidin-12-yl)-6-((3R,5R)-3,5-dihydroxy-piperidin-1-yl)-[1,3,5]triazin-2-ylamino]-phenyl}-amide] |
| > 64 µg/mL | Cl.N[C@@H]1C[C@H](N)CN(c2nc(NCc3ccco3)nc(N3C[C@H](N)C[C@H](N)C3)n2)C1 [N-furan-2-ylmethyl-4,6-Bis-((3R,5S)-3,5-diamino-piperidin-1-yl)-[1,3,5]triazine-2-amine] |
| < 64 µg/mL | COc1ccc(-c2ccccc2)cc1Nc1nc(N2C[C@H](N)C[C@H](N)C2)nc(N2C[C@H](N)C[C@H](N)C2)n1 [N-(4-methoxy-biphenyl-3-yl)-4,6-Bis-((3R,5S)-3,5-0diamino-piperidin-1-yl)-[1,3,5]triazine-2-amine] |
| < 64 µg/mL | Cl.O=C(Nc1ccc(Nc2nc(N3CCCCC3)nc(N3CCCC3)n2)cc1O)c1ccc(Cl)cc1 [4-Chloro-N-{4-[4-((3R,5S)-3,5-diamino-piperidin-1-yl)-6-((3R,4S)-3,4-diamino-pyrrolidsin-1-yl)-[1,3,5]triazin-2-ylamino]-2-hydroxy-phenyl}-benzamide] |
| < 64 µg/mL | COc1ccc(Nc2ccc(Nc3nc(N4C[C@H](N)C[C@H](N)C4)nc(N4C[C@H](N)C[C@H](N)C4)n3)cc2)cc1 [N-[4-(4-methoxy-phenylamino)-phenyl]-4,6-Bis-((3R,5S)-3,5-diamino-piperidin-1-yl)-[1,3,5]triazine-2-amine] |
| > 64 µg/mL | Cc1cc(NC(=O)c2cccc([N+](=O)[O-])c2O)ccc1Nc1nc(N2CCCCC2)nc(N2CCCCC2)n1.Cl [N-[4-(2-hydroxy-3-nitro-benzoylamino)-2-methyl-pphenyl]-4,6-Bis-((3R,5S)-3,5-diamino-piperidin-1-yl)-[1,3,5]triazine-2-amine] |
| < 64 µg/mL | Cc1ccc(S(=O)(=O)N(Cc2ccccc2)c2ccc(Nc3nc(NC4CCNCC4)nc(N4C[C@H](N)C[C@H](N)C4)n3)cc2O)cc1 [N-Benzyl-N-{4-[4-((3R,5S)-3,5-diamino-piperidin-1-yl)-6-(piperidin-4-ylamino)-[1,3,5]triazin-2-ylamino]-2-hydroxy-phenyl}-4-methyl-benzenesulfonamide] |
| < 16 µg/mL | Cl.O=C(Nc1ccc(Nc2cc(N3CCCCC3)cc(N3CCCCC3)c2)cc1)c1ccc2ccccc2c1O [1-Hydroxy-naphthalene-2-cxarboxylicacid {4-[3-((3R,5S)-3,5-diamino-piperidin-1-yl)-5-((3S,5R)-3,5-diamino-piperidin-1-yl)-phenylamino]-phenyl}-amide] |
| < 64 µg/mL | CC12CC[C@](C(=O)Nc3ccc(Nc4nc(N5C[C@H](N)C[C@H](N)C5)nc(N5C[C@H](N)C[C@H](N)C5)n4)cc3O)(OC1=O)C2(C)C [(S)-4,7,7-Trimethyl-3-oxo-2-oxa-bicyclo[2.2.1]heptane-1-carboxylic acid {4-[4,6-bis-((3R,5S)-3,5-diamino-piperidin-1-yl)-[1,3,5]triazin-2-ylamino]-2-hydroxy-phenyl}-amide] |
| > 64 µg/mL | N[C@@H]1C[C@H](N)CN(c2nc(Nc3ccc(Br)cc3)nc(N3C[C@H](N)C[C@H](N)C3)n2)C1 [N-(4-bromo-phenyl)-4,6-Bis-((3R,5S)-3,5-diamino-piperidin-1-yl)-[1,3,5]triazine-2-amine] |

same assay, conditions: Escherichia coli, 18 h, read-out: Potency (MIC)

| SMILES | MIC |
| --- | --- |
| COc1ccc(NC(=O)c2ccc(O)cc2O)c(Nc2nc(N3C[C@H](N)C[C@H](N)C3)nc(N3C[C@H](N)C[C@H](N)C3)n2)c1 [N-[2-(2,4-dihydroxy-benzoylamino)-5-methoxy-phenyl]-4,6-Bis-((3R,5S)-3,5-diamino-piperidin-1-yl)-[1,3,5]triazine-2-amine] | > 64 µg/mL |
| Cc1ccc(S(=O)(=O)N(Cc2ccccc2)c2ccc(Nc3nc(N4C[C@H](N)C[C@H](N)C4)nc(N4C[C@@H](N)C[C@H]4CN)n3)cc2O)cc1 [N-{4-[4-((2S,4S)-4-Amino-2-aminomethyl-pyrrolidin-1-yl)-6-((3R,5S)-3,5-diamino-piperidin-1-yl)-[1,3,5]triazin-2-ylamino]-2-hydroxy-phenyl}-N-benzyl-4-methyl-benzenesulfonamide] | < 64 µg/mL |
| N[C@@H]1C[C@H](N)CN(c2nc(Nc3ccc(C(=O)CC(=O)Nc4ccccc4)cc3)nc(N3C[C@H](N)C[C@H](N)C3)n2)C1 [N-[4-(2-phenylcarbamoyl-acetyl)-phenyl]-4,6-Bis-((3R,5S)-3,5-diamino-piperidin-1-yl)-[1,3,5]triazine-2-amine] | < 16 µg/mL |
| N[C@@H]1C[C@H](N)CN(c2nc(Nc3ccc(NC(=O)c4ccc(Cl)cc4O)cc3)nc(N3C[C@H](N)C[C@H](N)C3)n2)C1 [N-[4-(4-chloro-2-hydroxy-benzoylamino)-phenyl]-4,6-Bis-((3R,5S)-3,5-diamino-piperidin-1-yl)-[1,3,5]triazine-2-amine] | < 16 µg/mL |
| COc1ccc(NC(=O)c2cccc(O)c2O)c(Nc2nc(N3C[C@H](N)C[C@H](N)C3)nc(N3C[C@H](N)C[C@H](N)C3)n2)c1 [N-[2-(2,3-dihydroxy-benzoylamino)-5-methoxy-phenyl]-4,6-Bis-((3R,5S)-3,5-diamino-piperidin-1-yl)-[1,3,5]triazine-2-amine] | > 64 µg/mL |
| N[C@@H]1C[C@H](N)CN(c2nc(Nc3ccc(NC(=O)c4ccc5cccnc5c4O)cc3)nc(N3C[C@H](N)C[C@H](N)C3)n2)C1 [N-{4-[(8-hydroxy-quinoline-7-carbonyl)-amino]-phenyl}-4,6-Bis-((3R,5S)-3,5-diamino-piperidin-1-yl)-[1,3,5]triazine-2-amine] | < 16 µg/mL |
| N[C@@H]1C[C@H](N)CN(c2nc(Nc3ccc(NC(=O)c4ccc5ccccc5c4O)cc3)nc(N3C[C@H](N)C[C@H](N)C3)n2)C1 [N-{4-[(1-hydroxy-naphthalene-2-carbonyl)-amino]-phenyl}-4,6-Bis-((3R,5S)-3,5-diamino-piperidin-1-yl)-[1,3,5]triazine-2-amine] | < 16 µg/mL |
| N[C@@H]1C[C@H](N)CN(c2nc(Nc3ccc4c(c3)Cc3ccccc3-4)nc(N3C[C@H](N)C[C@H](N)C3)n2)C1 [N-(9H-fluoren-2-yl)-4,6-Bis-((3R,5S)-3,5-diamino-piperidin-1-yl)-[1,3,5]triazine-2-amine] | < 16 µg/mL |
| N[C@@H]1C[C@H](N)CN(c2nc(Nc3ccc(C(=O)Nc4ccc5c(c4)OCO5)c(O)c3)nc(N3C[C@H](N)C[C@H](N)C3)n2)C1 [N-[4-(benzo[1,3]dioxol-5-ylcarbamoyl)-3-hydroxy-phenyl]-4,6-Bis-((3R,5S)-3,5-diamino-piperidin-1-yl)-[1,3,5]triazine-2-amine] | < 16 µg/mL |
| N[C@@H]1C[C@H](N)CN(c2nc(Nc3ccc(NS(=O)(=O)CCCCl)c(O)c3)nc(N3C[C@H](N)C[C@H](N)C3)n2)C1 [N-[4-(3-chloro-propane-1-sulfonylamino)-3-hydroxy-phenyl]-4,6-Bis-((3R,5S)-3,5-diamino-piperidin-1-yl)-[1,3,5]triazine-2-amine] | > 64 µg/mL |
| Cc1cccc(C(=O)Nc2cccc(Nc3nc(N4C[C@H](N)C[C@H](N)C4)nc(N4C[C@H](N)C[C@H](N)C4)n3)c2)c1O [N-[3-(2-hydroxy-3-methyl-benzoylamino)-phenyl]-4,6-Bis-((3R,5S)-3,5-diamino-piperidin-1-yl)-[1,3,5]triazine-2-amine] | < 16 µg/mL |
| N[C@@H]1C[C@H](N)CN(c2nc(Nc3ccc(C(=O)Nc4ccc5c(c4)OC(F)(F)O5)c(O)c3)nc(N3C[C@H](N)C[C@H](N)C3)n2)C1 [N-[4-(2,2-difluoro-benzo[1,3]dioxol-5-ylcarbamoyl)-3-hydroxy-phenyl]-4,6-Bis-((3R,5S)-3,5-diamino-piperidin-1-yl)-[1,3,5]triazine-2-amine] | < 16 µg/mL |
| COc1ccc(O)c(C(=O)Nc2ccc(Nc3nc(N4C[C@H](N)C[C@H](N)C4)nc(N4C[C@H](N)C[C@H](N)C4)n3)cc2O)c1 [N-[3-hydroxy-4-(2-hydroxy-5-methoxy-benzoylamino)-phenyl]-4,6-Bis-((3R,5S)-3,5-diamino-piperidin-1-yl)-[1,3,5]triazine-2-amine] | < 16 µg/mL |
| N[C@@H]1C[C@H](N)CN(c2nc(Nc3ccc(NS(=O)(=O)c4ccc5c(c4)CN(C(=O)C(F)(F)F)CC5)c(O)c3)nc(N3C[C@H](N)C[C@H](N)C3)n2)C1 [N-{3-hydroxy-4-[2-(2,2,2-trifluoro-acetyl)-1,2,3,4-tetrahydro-isoquinoline-7-sulfonylamino]-phenyl}-4,6-Bis-((3R,5S)-3,5-diamino-piperidin-1-yl)-[1,3,5]triazine-2-amine] | > 64 µg/mL |
| N[C@@H]1C[C@H](N)CN(c2nc(Nc3ccc(S(=O)(=O)Nc4ccc5cn[nH]c5c4)cc3)nc(N3C[C@@H](N)[C@@H](N)C3)n2)C1 [4-[4-((3R,5S)-3,5-Diamino-piperidin-1-yl)-6-((3R,4S)-3,4-diamino-pyrrolidin-1-yl)-[1,3,5]triazin-2-ylamino]-N-(1H-indazol-6-yl)-benzenesulfonamide] | > 64 µg/mL |
| Cc1nc(NS(=O)(=O)c2ccc(Nc3nc(N4C[C@H](N)C[C@H](N)C4)nc(N4C[C@H](N)C[C@H](N)C4)n3)cc2)oc1C [N-[4-(4,5-dimethyl-oxazol-2-ylsulfamoyl)-phenyl]-4,6-Bis-((3R,5S)-3,5-diamino-piperidin-1-yl)-[1,3,5]triazin-2-amine] | > 64 µg/mL |
| N[C@@H]1C[C@H](N)CN(c2nc(Nc3ccc(C(=O)CC(=O)Nc4ccc5c(c4)OC(F)(F)O5)cc3)nc(N3C[C@H](N)C[C@H](N)C3)n2)C1 [N-{4-[2-(2,2-difluoro-benzo[1,3]dioxol-5-ylcarbamoyl)-acetyl]-phenyl}-4,6-Bis-((3R,5S)-3,5-diamino-piperidin-1-yl)-[1,3,5]triazine-2-amine] | < 16 µg/mL |
| N[C@@H]1C[C@H](N)CN(c2nc(Nc3ccc(S(=O)(=O)c4ccc([N+](=O)[O-])cc4)cc3)nc(N3C[C@H](N)C[C@H](N)C3)n2)C1 [N-[4-(4-nitro-benzenesulfonyl)-phenyl]-4,6-Bis((3R,5S)-3,5-diamino-piperidin-1-yl)-[1,3,5]triazine-2-amine] | < 64 µg/mL |
